Experimental data: PubChem BioAssay AID1918947 (Molecular Pharmacology Branch, DTP, NCI, 2023)
Where “and” joins values, the source holds several entries; their conditions need not be identical. Identical values can stand only once.

Tested on: A498 complex spheroid viability
Assay: Anticancer human tumor A498 cell line growth inhibition;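 further: spheroids exposed to agents for seven days before readout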;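 on viability, T/C: 100% = DMSO vehicle-treated spheroids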
Settings: for viability, T/C: stronger effect = lower value
Method in brief: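 Drug combinations with the LSD1 inhibitor iadademstat tested on tumor cells co-cultured as spheroids with endothelial cells and mesenchymal stem cells. Concentrations descended in half-log increments from clinical Cmax or 10 microM.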

[1] = curve of first compound, second compound 0.1 µM
[2] = curve of first compound, second compound 0.316 µM
[3] = curve of first compound, second compound 1 µM
[4] = curve of first compound, second compound 3.16 µM
[5] = curve of first compound, second compound 10 µM
[6] = second compound 0.1 µM, first compound 0.00949 µM
[7] = second compound 0.1 µM, first compound 0.03 µM
[8] = second compound 0.1 µM, first compound 0.0949 µM
[9] = second compound 0.1 µM, first compound 0.3 µM
[10] = second compound 0.316 µM, first compound 0.00949 µM
[11] = second compound 0.316 µM, first compound 0.03 µM
[12] = second compound 0.316 µM, first compound 0.0949 µM
[13] = second compound 0.316 µM, first compound 0.3 µM
[14] = second compound 1 µM, first compound 0.00949 µM
[15] = second compound 1 µM, first compound 0.03 µM
[16] = second compound 1 µM, first compound 0.0949 µM
[17] = second compound 1 µM, first compound 0.3 µM
[18] = second compound 3.16 µM, first compound 0.00949 µM
[19] = second compound 3.16 µM, first compound 0.03 µM
[20] = second compound 3.16 µM, first compound 0.0949 µM
[21] = second compound 3.16 µM, first compound 0.3 µM
[22] = second compound 10 µM, first compound 0.00949 µM
[23] = second compound 10 µM, first compound 0.03 µM
[24] = second compound 10 µM, first compound 0.0949 µM
[25] = second compound 10 µM, first compound 0.3 µM

`Nc1ccn(C2OC(CO)C(O)C2(F)F)c(=O)n1` (configuration not stated) + NC1CCC(NC2CC2c2ccccc2)CC1 gave an IC50 [1] of under 0.000949 µM, an IC50 [2] of under 0.000949 µM and an IC50 [3] of under 0.000949 µM. For the same compound, the IC50 [4] was under 0.000949 µM, the IC50 [5] was under 0.000949 µM and the viability, T/C (second compound 0.1 µM, first compound 0.000949 µM) was 25.7%. It also gave a viability, T/C (second compound 0.1 µM, first compound 0.003 µM) of 32.9%, a viability, T/C [6] of 41.2% and a viability, T/C [7] of 38%. The viability, T/C [8] was 36.8%, the viability, T/C [9] was 29.9% and the viability, T/C (second compound 0.316 µM, first compound 0.000949 µM) was 24.3%. It also gave a viability, T/C (second compound 0.316 µM, first compound 0.003 µM) of 33.9%, a viability, T/C [10] of 44.2% and a viability, T/C [11] of 43.3%. For the same compound, the viability, T/C [12] was 36.8%, the viability, T/C [13] was 31.1% and the viability, T/C (second compound 1 µM, first compound 0.000949 µM) was 21.7%. The viability, T/C (second compound 1 µM, first compound 0.003 µM) was 32.8%, the viability, T/C [14] was 43.2% and the viability, T/C [15] was 40.8%. The viability, T/C [16] was 29.9%, the viability, T/C [17] was 29.3% and the viability, T/C (second compound 3.16 µM, first compound 0.000949 µM) was 23.8%. The viability, T/C (second compound 3.16 µM, first compound 0.003 µM) was 30.5%, the viability, T/C [18] was 38.2% and the viability, T/C [19] was 38.2%. The viability, T/C [20] was 30.8%, the viability, T/C [21] was 30.3% and the viability, T/C (second compound 10 µM, first compound 0.000949 µM) was 22.3%. It also gave a viability, T/C (second compound 10 µM, first compound 0.003 µM) of 26.7%, a viability, T/C [22] of 39.8% and a viability, T/C [23] of 38.5%. The viability, T/C [24] was 27.9% and the viability, T/C [25] was 25.5%.

In the case of `COc1cc(Nc2ncc3c(n2)-c2ccc(Cl)cc2C(c2c(F)cccc2OC)=NC3)ccc1C(=O)O`, the viability, T/C (compound 0.00316 µM) is reported as 95.5% and 94.2%, the viability, T/C (compound 0.01 µM) is reported as 84.6% and 64.9% and the viability, T/C (compound 0.0316 µM) is reported as 76.9% and 71.9%. For the same compound, the viability, T/C (compound 0.1 µM) was 66.4% and 62.6%, the viability, T/C (compound 0.316 µM) was 60% and 54.1% and the viability, T/C (compound 1 µM) was 50.4% and 40.4%. For the same compound, the IC50 (curve of compound) was > 1 µM and 0.381 µM.

`O=C(c1cc(Cc2n[nH]c(=O)c3ccccc23)ccc1F)N1CCN(C(=O)C2CC2)CC1` + NC1CC1c1ccc(-c2cccc(O)c2)cc1 was tested, and the IC50 [1] was over 10 µM, the IC50 [2] was over 10 µM and the IC50 [3] was over 10 µM. The IC50 [4] was over 10 µM, the IC50 [5] was over 10 µM and the viability, T/C (second compound 0.1 µM, first compound 0.0316 µM) was 107%. For the same compound, the viability, T/C (second compound 0.1 µM, first compound 0.1 µM) was 111%, the viability, T/C (second compound 0.1 µM, first compound 0.316 µM) was 105% and the viability, T/C (second compound 0.1 µM, first compound 1 µM) was 105%. For the same compound, the viability, T/C (second compound 0.1 µM, first compound 3.16 µM) was 107%, the viability, T/C (second compound 0.1 µM, first compound 10 µM) was 91.5% and the viability, T/C (second compound 0.316 µM, first compound 0.0316 µM) was 109%. For the same compound, the viability, T/C (second compound 0.316 µM, first compound 0.1 µM) was 113%, the viability, T/C (second compound 0.316 µM, first compound 0.316 µM) was 111% and the viability, T/C (second compound 0.316 µM, first compound 1 µM) was 108%. For the same compound, the viability, T/C (second compound 0.316 µM, first compound 3.16 µM) was 102%, the viability, T/C (second compound 0.316 µM, first compound 10 µM) was 97.8% and the viability, T/C (second compound 1 µM, first compound 0.0316 µM) was 107%. It also gave a viability, T/C (second compound 1 µM, first compound 0.1 µM) of 110%, a viability, T/C (second compound 1 µM, first compound 0.316 µM) of 105% and a viability, T/C (second compound 1 µM, first compound 1 µM) of 99.1%. It also gave a viability, T/C (second compound 1 µM, first compound 3.16 µM) of 97.6%, a viability, T/C (second compound 1 µM, first compound 10 µM) of 96% and a viability, T/C (second compound 3.16 µM, first compound 0.0316 µM) of 101%. It also gave a viability, T/C (second compound 3.16 µM, first compound 0.1 µM) of 105%, a viability, T/C (second compound 3.16 µM, first compound 0.316 µM) of 104% and a viability, T/C (second compound 3.16 µM, first compound 1 µM) of 103%. The viability, T/C (second compound 3.16 µM, first compound 3.16 µM) was 95.2%, the viability, T/C (second compound 3.16 µM, first compound 10 µM) was 91% and the viability, T/C (second compound 10 µM, first compound 0.0316 µM) was 102%. The viability, T/C (second compound 10 µM, first compound 0.1 µM) was 105%, the viability, T/C (second compound 10 µM, first compound 0.316 µM) was 107% and the viability, T/C (second compound 10 µM, first compound 1 µM) was 101%. It also gave a viability, T/C (second compound 10 µM, first compound 3.16 µM) of 102% and a viability, T/C (second compound 10 µM, first compound 10 µM) of 88.4%.

For `CCN(c1cc(-c2ccc(CN3CCOCC3)cc2)cc(C(=O)NCc2c(C)cc(C)[nH]c2=O)c1C)C1CCOCC1` + NC1CC1c1ccc(-c2cccc(O)c2)cc1, the IC50 [1] was over 3 µM, the IC50 [2] was over 3 µM and the IC50 [3] was over 3 µM. For the same compound, the IC50 [4] was over 3 µM, the IC50 [5] was over 3 µM and the viability, T/C [6] was 98.8%. It also gave a viability, T/C [7] of 112%, a viability, T/C [8] of 98.9% and a viability, T/C [9] of 95.1%. The viability, T/C (second compound 0.1 µM, first compound 0.949 µM) was 103%, the viability, T/C (second compound 0.1 µM, first compound 3 µM) was 96.7% and the viability, T/C [10] was 108%. The viability, T/C [11] was 106%, the viability, T/C [12] was 108% and the viability, T/C [13] was 107%. The viability, T/C (second compound 0.316 µM, first compound 0.949 µM) was 101%, the viability, T/C (second compound 0.316 µM, first compound 3 µM) was 104% and the viability, T/C [14] was 100%. It also gave a viability, T/C [15] of 107%, a viability, T/C [16] of 97.6% and a viability, T/C [17] of 94.7%. It also gave a viability, T/C (second compound 1 µM, first compound 0.949 µM) of 98.4%, a viability, T/C (second compound 1 µM, first compound 3 µM) of 95.1% and a viability, T/C [18] of 94%. For the same compound, the viability, T/C [19] was 92.6%, the viability, T/C [20] was 89% and the viability, T/C [21] was 90.1%. For the same compound, the viability, T/C (second compound 3.16 µM, first compound 0.949 µM) was 93.8%, the viability, T/C (second compound 3.16 µM, first compound 3 µM) was 100% and the viability, T/C [22] was 96.6%. It also gave a viability, T/C [23] of 97.2%, a viability, T/C [24] of 94.9% and a viability, T/C [25] of 93.1%. For the same compound, the viability, T/C (second compound 10 µM, first compound 0.949 µM) was 90.6% and the viability, T/C (second compound 10 µM, first compound 3 µM) was 91%.
